In brackets after ≈: the same amount, converted by molar mass. Where two headings read alike, the source gives them in different places.
Key:
[1] = aqueous solution
[2] = Solubility in water at room temperature (saturated aqueous solution); type: physicochemical; conditions: room temperature of about 25° C.
Procedure: At the ambient temperature (room temperature of about 25° C.), a saturated aqueous solution of amlodipine nicotinate contains about 6.0 mg of the chemical per mL of water. In comparison, a saturated aqueous solution of amlodipine besylate contains about 2.0 mg of the chemical per mL of water.

[3] = type: physicochemical; conditions: 3 weeks
Procedure: The stability of amlodipine nicotinate and amlodipine besylate was tested at 45° C. and 75° C. for 3 weeks.

[4] = listed as amlodipine nicotinate

| Structure (SMILES) | pH Value [1] | Solubility in Water at Room Temperature [2] | Stability Test (% of Sample Purity) (3-week) 45° C. [3] | Stability Test (% of Sample Purity) (3-week) 75° C. [3] | pH Value [1, 4] | Solubility in Water at Room Temperature [2, 4] |
| --- | --- | --- | --- | --- | --- | --- |
| CCOC(=O)C1=C(COCCN)NC(C)=C(C(=O)OC)C1c1ccccc1Cl (stereo not shown) [Amlodipine Besylate, amlodipine besylate, reference compound] | 6.09 | about 2.0 mg/ml | 99.6% | 97.8% |  |  |
| CCOC(=O)C1=C(COCCN)NC(C)=C(C(=O)OC)C1c1ccccc1Cl (stereo not shown) [Amlodipine Nicotinate, amlodipine nicotinate] | 5.34 | 6.0 mg/mL (≈ 14.7 mM) | 99.7% | 99.2% | 5.34 | about 6.0 mg/ml |

— patent US6699892B2, “Pharmaceutically acceptable salt of amlodipine and method of preparing the same” (Yung Shin Pharmaceutical Industrial Co., Ltd., priority 2002, dated 2004)
